Measured values from patent US20100003217A1, “Compounds and Pharmaceutical Compositions for the Treatment of Viral Infections” (priority 2008, published 2010).

Key:
[1] = test system: HCV genotype 1b replicon (GS4.1 cells); assay: HCV replicon assay (NS4A ELISA); assay type: cell-based, hepatitis C virus; details: 3 days
Description: The biological activity of Compound 1, diastereomer 1 and diastereomer 2 was measured by monitoring expression of the NS4A protein by enzyme-linked immunosorbent assay (ELISA) and by luciferase assay as described below:
The HCV replicon assay measures the ability of a test compound to inhibit HCV replication in cell culture after 3 days of treatment in a human hepatoma cell line (Huh-7) bearing the HCV genotype 1b replicon (GS4.1 cells). The inhibition of HCV replication was measured by quantification of viral NS4A protein using an enzyme-linked immunosorbent assay (ELISA). […] Additionally, the replicon contains the neomycin phosphotransferase gene under the control of the HCV promoter (Source: Dr. Christoph Seeger, Fox Chase Cancer Center, Philadelphia, Pa.).
The NS4A ELISA assay is summarized as follows. Ninety-six-well tissue culture plates were seeded with GS4.1 cells. Antiviral compound solutions were made up freshly in medium as 2×-concentrated stocks. Eight additional 3-fold drug dilutions were prepared from these stocks in medium for a total of 9 dilutions. At least four hours after GS4.1 cells were seeded, drug treatment was initiated by adding one volume of each 2× concentrated drug dilution to one volume of cells/medium in the tissue culture plates. Cells were then incubated for 3 days at 37° C./5% CO2.
The media/compound was then removed from the plates and cells were fixed with acetone:methanol, washed three times with a wash solution, and then blocked for 1 hour with 10% fetal bovine serum in a balanced salt solution. Cells were washed three times and incubated with an anti-hepatitis C NS4A monoclonal antibody (Virogen Corp.) for 2 hours at 37° C. […] The reaction was stopped with diluted sulfuric acid (Mallinckrodt Chemicals) and absorbance measured on a Victor^3V 1420 multilabel counter (Perkin Elmer). EC50 values were calculated from dose response curves from the resulting best-fit equations determined by Microsoft Excel and XLfit 4.1 software.

[2] = test system: HCV genotype 1b replicon (Zluc cells); assay: HCV luciferase replicon assay; assay type: cell-based, hepatitis C virus; details: 3 days
Description: The HCV luciferase replicon assay measures the ability of a test compound to inhibit HCV replication in cell culture after 3 days of treatment in a human hepatoma cell line (Huh-7) bearing the HCV genotype 1b replicon and a luciferase-neomycin phosphotransferase fusion gene. The inhibition of HCV replication was measured by quantification of luciferase protein expression. The HCV luciferase replicon was constructed by fusing a luciferase gene to the amino terminus of the neomycin phosphotransferase gene of the ZS11 HCV replicon. The ZS11 HCV replicon (Zhu Q, Guo J-T, and Seeger C, 2003) is derived from the SP1 replicon, but contains three cell culture-adapted mutations: E1202G (NS3), S22041 (NS5A), and D2254E (NS5A). These mutations allow for efficient in vitro replication. The luciferase reporter gene was amplified from the pGL4.13[luc2/SV40] vector (Promega Corp.). The replicon resulting from the luciferase-neomycin fusion (ZS11-luc) was stably-transfected into Huh-7 cells, yielding the Zluc cell line.
The luciferase replicon assay is summarized as follows: Solid white 96-well tissue culture plates (BD Falcon) were seeded with Zluc cells. Antiviral compound solutions were made up freshly in medium as 2×-concentrated stocks. Eight additional 3-fold drug dilutions were prepared from these stocks in medium for a total of 9 dilutions. At least four hours after Zluc cells were seeded, drug treatment was initiated by adding one volume of each 2×-concentrated drug dilution to one volume of cells/medium in the tissue culture plates. Cells were then incubated for 3 days at 37° C./5% CO2.
The media/compound was then removed from the plates and the ONE-glo Luciferase assay reagent (Promega) was added to each well. The assay plates were shaken for 3 minutes at room temperature and luciferase activity for each well was measured with a 1 sec read time on the Victor^3V multilabel counter using a 700 nm cut-off filter (Perkin Elmer). EC50 values were calculated from dose response curves from the resulting best-fit equations determined by Microsoft Excel and XLfit 4.1 software.

GS4.1 cells = assay: Cytotoxicity assay (MTS), GS4.1 cells; assay type: cell-based, human; details: 3 days (NS4A-ELISA Assay)
Description: The cytotoxicity assay measures the viability of cells after treatment with a test compound for 3 days in either GS4.1 cells or Zluc cells. […] The cytotoxicity assay is summarized as follows. Ninety-six-well tissue culture plates were seeded with GS4.1 or Zluc cells. Antiviral compound solutions were made up freshly in medium as 2×-concentrated stocks. Eight additional 3-fold drug dilutions were prepared from these stocks in medium for a total of 9 dilutions. At least four hours after the cells were seeded, drug treatment was initiated by adding one volume of each 2×-concentrated drug dilution to one volume of cells/medium in the tissue culture plates. Cells were then incubated for 3 days at 37° C./5% CO2. After 3 days of treatment, the CellTiter 96® Aqueous One Solution cell proliferation assay (Promega) was performed by adding the MTS solution to each well. The plates were then incubated at 37° C./5% CO2 for 3.5 hours. Plates were then read in a Victor^3V 1420 multilabel counter (Perkin Elmer) and CC50 concentrations were determined using Microsoft Excel and XLfit 4.1 software.

[3] = Stability in rat liver microsomes; assay type: in vitro ADME; details: rat microsomes 1 mg/mL, 60 min, 50 μM
Description: (§1) Disappearance of parent Compound 1 was used to evaluate the in vitro metabolism thereof. Relative levels of unchanged Compound 1 were measured by HPLC-UV method 1. Residual Compound 1 is reported as percent difference from time zero or control. The HPLC-UV system was as follows:
(§2) Incubations with liver microsomes or cytosol were conducted in a final volume of 0.1 mL per incubation time point. […] DMSO (final DMSO concentration was 0.1%) was incubated at 37° C. from 0-60 min with pooled microsomal protein (1.0 mg/mL), suspended in incubation buffer (0.1 M potassium phosphate, pH 7.4, 5 mM MgCl2, and 0.1 mM EDTA). The microsomal reaction was initiated by the addition of NADPH (3 mM final concentration). Incubations with (a) no protein or (b) no NADPH served as controls. Reactions were terminated by the addition of 0.2 mL of stop solution (acetonitrile). The samples were vortex-mixed for 30 sec and then centrifuged at 10,000×g for 10 min. The supernatant was dried using a Labconco CentriVap concentrator and the dry residue reconstituted in water, transferred to an HPLC glass vial and analyzed by HPLC-UV method 1 (described above).
(§3) Metabolic stability of the proposed metabolites was conducted by incubating the chemically synthesized standards Compound 2, Compound 4 and Compound 3 as described above for Compound 1. When possible, formation of Compound 5 was verified by incubating samples with alkaline phosphatase (10 U) for 60 min at 37° C.

[4] = Stability in monkey liver microsomes; assay type: in vitro ADME; details: monkey microsomes 1 mg/mL, 60 min, 50 μM
Description: as §1, §2, §3

[5] = Stability in human liver microsomes; assay type: in vitro ADME; details: human microsomes 1 mg/mL, 60 min, 50 μM
Description: as §1
Incubations with liver microsomes or cytosol were conducted in a final volume of 0.1 mL per incubation time point. […] The microsomal reaction was initiated by the addition of NADPH (3 mM final concentration). Incubations with (a) no protein or (b) no NADPH served as controls. Reactions were terminated by the addition of 0.2 mL of stop solution (acetonitrile). The samples were vortex-mixed for 30 sec and then centrifuged at 10,000×g for 10 min. The supernatant was dried using a Labconco CentriVap concentrator and the dry residue reconstituted in water, transferred to an HPLC glass vial and analyzed by HPLC-UV method 1 (described above).
as §3

[6] = Incubation with rat liver cytosol; assay type: in vitro ADME; details: rat cytosol 1 mg/mL, 2 hours, 10 μM
Description: (§4) Pooled liver cytosol (1.0 mg protein/mL) suspended in incubation buffer (0.1 M potassium phosphate, pH 7.4) was incubated for 2 hours at 37° C. with 10 μM Compound 1 from a stock solution in DMSO (final DMSO concentration was 0.1%); reaction was initiated with the addition of test article. Incubations with no protein served as control. Reactions were terminated by the addition of 0.1 mL of stop solution (acetonitrile). The samples were vortex-mixed for 30 sec and then centrifuged at 10,000×g for 10 min. The supernatant was dried using a Labconco CentriVap concentrator and the dry residue reconstituted in water, transferred to an HPLC glass vial and analyzed by HPLC-UV method 2 (described above).
as §3

[7] = Incubation with monkey liver cytosol; assay type: in vitro ADME; details: monkey cytosol 1 mg/mL, 2 hours, 10 μM
Description: as §4, §3

[8] = Incubation with human liver cytosol; assay type: in vitro ADME; details: human cytosol 1 mg/mL, 2 hours, 10 μM
Description: as §4, §3

pig liver esterase = assay: Incubation with pig liver esterase; assay type: in vitro ADME; details: Esterase 14 U, 60 min, 10 μM
Description: as §4, with “Pig” for “Pooled”, “esterase (14 U)” for “cytosol (1.0 mg protein/mL)”, “60 min” for “2 hours”, “controls.” for “control.”
as §3

| Structure (SMILES) | EC50 [1] | EC50 [2] | CC50 (GS4.1 cells) | % Residual compound following incubation with liver microsomes ([3]; NADPH) | % Residual compound following incubation with liver microsomes ([3]; No Cofactor) | % Residual compound following incubation with liver microsomes ([4]; NADPH) | % Residual compound following incubation with liver microsomes ([4]; No Cofactor) | % Residual compound following incubation with liver microsomes ([5]; NADPH) | % Residual compound following incubation with liver microsomes ([5]; No Cofactor) | Residual compound following incubation with liver cytosol [6] | Residual compound following incubation with liver cytosol [7] | Residual compound following incubation with liver cytosol [8] | Residual compound following incubation with pig liver esterase (pig liver esterase) |
| --- | --- | --- | --- | --- | --- | --- | --- | --- | --- | --- | --- | --- | --- |
| CC(C)(CO)C(=O)SCCOP(=O)(NCc1ccccc1)OC[C@H]1O[C@@H](n2cnc3c(=O)[nH]c(N)nc32)[C@](C)(O)[C@@H]1O (single isomer, unassigned; diastereomer 1) [Diastereomer 1] | 704 ± 372 nM | 165 ± 23 nM | > 100000 nM |  |  |  |  |  |  |  |  |  |  |
| C[C@@]1(O)[C@H](O)[C@@H](COP(N)(=O)O)O[C@H]1n1cnc2c(=O)[nH]c(N)nc21 [Compound 4, {9-[(2R)2-C-methyl-β-D-ribo-furanosyl]-guanin}-5′-yl phosphoramidate] |  |  |  | 89% | 100% | 83% | 100% | 93% | 100% | 101% | 103% | 100% | 100% |
